Read-outs that look alike come from different tables or passages of the source. Positions of bridges follow the written chain, without caps; N, C: chain ends. Non-standard residues stand in square brackets, D forms with d. Residues, ends and D or L forms follow the SMILES beside them. *: point of attachment. Biotin = O=C1N[C@H]2[C@H](CS[C@H]2CCCCC(=O)*)N1; Lys(N3) = [N-]=[N+]=NCCCC[C@H](N)C(=O)O
Legend:
C1q = target: T1, C1q (Homo sapiens, UniProt P02745+P02746+P02747); assay: ELISA for complement activation: C1q recruitment from human serum by immobilised peptide; type: binding; settings: for EC50: 1% human serum in RPMI, four-parameter fit
T1 construct: tissue Complement Technology, Inc; host or cells: normal human serum (pooled), 1% in RPMI medium
T1 sequence (P02745 23-245): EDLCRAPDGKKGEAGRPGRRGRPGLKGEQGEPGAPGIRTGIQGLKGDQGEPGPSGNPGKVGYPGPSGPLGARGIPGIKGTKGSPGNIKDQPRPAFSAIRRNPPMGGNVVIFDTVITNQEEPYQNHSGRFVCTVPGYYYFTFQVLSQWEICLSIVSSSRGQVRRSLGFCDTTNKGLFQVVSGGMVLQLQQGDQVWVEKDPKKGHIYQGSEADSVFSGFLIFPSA
T1 sequence (P02746 28-253): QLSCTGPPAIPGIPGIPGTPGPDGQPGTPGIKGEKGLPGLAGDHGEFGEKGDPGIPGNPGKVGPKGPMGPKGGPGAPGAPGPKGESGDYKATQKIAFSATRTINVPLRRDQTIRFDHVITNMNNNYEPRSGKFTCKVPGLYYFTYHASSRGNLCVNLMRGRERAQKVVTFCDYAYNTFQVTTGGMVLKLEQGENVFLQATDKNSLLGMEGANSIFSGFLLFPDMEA
T1 sequence (P02747 29-245): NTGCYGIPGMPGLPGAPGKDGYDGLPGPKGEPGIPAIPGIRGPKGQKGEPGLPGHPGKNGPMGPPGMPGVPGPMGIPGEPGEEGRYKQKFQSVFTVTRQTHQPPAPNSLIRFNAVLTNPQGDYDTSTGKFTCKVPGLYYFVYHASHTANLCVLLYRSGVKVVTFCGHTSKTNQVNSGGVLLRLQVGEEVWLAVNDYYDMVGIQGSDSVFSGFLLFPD
T1 sequence (P00736 18-705 partner): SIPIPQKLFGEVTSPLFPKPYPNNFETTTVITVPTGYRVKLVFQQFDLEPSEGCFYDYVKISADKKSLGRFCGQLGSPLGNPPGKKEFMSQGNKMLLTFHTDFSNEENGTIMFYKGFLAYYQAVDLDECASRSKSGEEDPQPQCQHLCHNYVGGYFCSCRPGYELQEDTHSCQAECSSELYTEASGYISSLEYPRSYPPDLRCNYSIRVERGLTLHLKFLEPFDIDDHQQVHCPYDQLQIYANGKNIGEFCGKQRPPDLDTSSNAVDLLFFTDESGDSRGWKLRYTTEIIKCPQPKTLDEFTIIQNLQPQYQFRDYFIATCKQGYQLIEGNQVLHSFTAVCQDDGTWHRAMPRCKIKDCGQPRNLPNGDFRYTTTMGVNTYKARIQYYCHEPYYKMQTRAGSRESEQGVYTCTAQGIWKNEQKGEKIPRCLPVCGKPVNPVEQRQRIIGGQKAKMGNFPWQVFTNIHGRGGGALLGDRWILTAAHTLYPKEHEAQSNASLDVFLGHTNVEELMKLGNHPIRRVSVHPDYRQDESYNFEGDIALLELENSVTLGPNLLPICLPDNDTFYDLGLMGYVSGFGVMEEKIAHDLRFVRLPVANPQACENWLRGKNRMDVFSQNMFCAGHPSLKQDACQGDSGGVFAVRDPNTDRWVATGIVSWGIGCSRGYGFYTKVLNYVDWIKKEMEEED
T1 sequence (P09871 16-688 partner): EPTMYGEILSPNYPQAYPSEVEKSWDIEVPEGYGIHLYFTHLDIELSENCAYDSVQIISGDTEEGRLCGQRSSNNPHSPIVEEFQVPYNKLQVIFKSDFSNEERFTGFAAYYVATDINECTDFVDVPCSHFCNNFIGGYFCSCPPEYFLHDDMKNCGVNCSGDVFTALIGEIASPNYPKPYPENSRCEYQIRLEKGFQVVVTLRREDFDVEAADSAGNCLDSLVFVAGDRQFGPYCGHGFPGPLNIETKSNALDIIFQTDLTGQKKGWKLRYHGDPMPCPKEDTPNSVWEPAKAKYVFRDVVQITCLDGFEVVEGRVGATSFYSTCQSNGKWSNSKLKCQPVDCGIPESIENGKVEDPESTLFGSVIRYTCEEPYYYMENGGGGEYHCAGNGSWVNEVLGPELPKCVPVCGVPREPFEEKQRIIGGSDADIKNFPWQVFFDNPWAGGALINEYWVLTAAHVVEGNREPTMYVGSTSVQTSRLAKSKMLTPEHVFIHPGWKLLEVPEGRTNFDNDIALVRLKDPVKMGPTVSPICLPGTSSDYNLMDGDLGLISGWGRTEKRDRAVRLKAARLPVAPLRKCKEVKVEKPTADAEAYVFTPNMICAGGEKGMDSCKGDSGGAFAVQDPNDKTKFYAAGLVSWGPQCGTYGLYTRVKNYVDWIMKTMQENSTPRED
Experimental: Maxisorb Nunc Immunoplates (Thermofisher Scientific, Massachusetts, USA) were coated with streptavidin (Thermofisher Scientific) at 10 μg mL^−1 in 0.1 M Na2CO3, 0.1 M NaHCO3 (coating buffer), pH 9.6 at 50 μL per well and allowed to incubate either at room temperature overnight, or 37 °C for 1 hour. Plates were washed with PBS with 0.05% tween-20 three times. For each following step, samples were incubated at 37 °C for 1 hour and subsequently washed with the PBS-T solution, we denote this as incubation and wash in the latter parts of the text. After streptavidin binding, wells were blocked with 100 μL of 0.1 M spermidine (Thermofisher Scientific) in distilled water incubated and washed. Then peptides were incubated in 50 μL PBS (as with all the following steps) with 0.05% Tween-20 (PBS-T) to create a peptide presenting surface and incubated and washed. In all activation assays, peptides are modified with a biotin to achieve binding to streptavidin. Note that in certain instances the peptides are initially modified with an azide. In such conditions a biotin-PEG4-DBCO (Jena Bioscience GmbH, Germany) was co-incubated with the peptides at 25 mol% excess of biotin linker to create a biotin modified peptide. This conjugation reaction took place in the plate. Hereafter the wells were incubated with 1% normal human serum (NHS) (Complement Technology, Inc., Texas, USA) in RPMI medium (Roswell Park Memorial Institute 1640 medium), then incubated and washed. Following these steps, complement components C1q or C5b-9 were detected. Primary Rabbit anti-C1q or Mouse anti C5b-9 (Dako, Denmark) was added to PBS, 0.05% Tween-20, 0.1% BSA (PBS-BT) in 1 : 2000 and 1 : 333 dilution, respectively, then incubated and washed. Next, goat anti-rabbit and anti-mouse antibodies (Dako, Denmark) modified with horseradish peroxidase (HRP) were diluted 1 : 5000 in PBS-T and added to the plates, then incubated and washed. To detect the HRP on the secondary antibody 2.5 mg mL^−1 ABTS (2′-azino-bis(3-ethylbenzothiazoline-6-sulfonic acid)) was added in citric acid buffer (0.15 M, pH 4.2) (ABTS buffer) containing 0.15 (v/v%) H2O2 was used and samples were incubated at room temperature for 30 minutes. Absorption measurements at 415 nm were performed on a CLARIOstar microplate reader (BMG Labtech, Offenburg, Germany).

[1] = tested on: C5b-9 deposition by pooled IgG; assay: Competition ELISA on pooled human IgG, C5b-9 detected; type: biochemical
Experimental: (§1) Materials, including buffers and blocking agent, were the same as for the activation assay, unless stated otherwise. Incubation and wash steps between added new components was kept identical to the section “Enzyme-linked immunosorbent assay (ELISA) for complement activation” above. To determine the competition with pooled human IgG (Sigma-Aldrich, USA), Maxisorb plates were coated with 10 μg mL^−1 of IgG pooled from human serum, incubated, washed and blocked with spermidine. Peptides were incubated with 1% normal human serum (pooled, Complement Technology) for at least 30 minutes before adding to the IgG coated plates. DMSO controls and no serum controls were added. Human serum with and without peptides was added to the plates and subsequent complement inhibition was determined by detecting the presence of C1q or C5b-9. Data shown in the graphs is normalized to the maximum signal of the DMSO control and the minimal signal of the no serum control. Absorption measurements at 415 were performed on a CLARIOstar microplate reader (BMG Labtech, Offenburg, Germany).

[2] = tested on: C1q binding to pooled IgG; assay: Competition ELISA on pooled human IgG, C1q detected; settings: peptide incubated with 1% human serum, pooled IgG-coated plate, two technical replicates
Experimental: as §1

CC[C@H](C)[C@@H]1NC(=O)[C@H](Cc2ccccc2)NC(=O)[C@H](CCC(N)=O)NC(=O)[C@H](CC(C)C)NC(=O)[C@H]([C@@H](C)O)NC(=O)[C@H](Cc2ccccc2)NC(=O)[C@@H]2CCCN2C(=O)[C@H](CC(=O)O)NC(=O)[C@@H]2CCCN2C(=O)[C@H](Cc2ccc(O)cc2)NC(=O)[C@H](Cc2ccccc2)NC(=O)[C@H]([C@@H](C)O)NC(=O)[C@H](C(C)C)NC(=O)[C@H]([C@@H](C)O)NC(=O)[C@H](Cc2ccc(O)cc2)NC(=O)CSC[C@@H](C(=O)NCC(=O)N[C@@H](CO)C(=O)N[C@@H](CCCCN=[N+]=[N-])C(=O)NCC(=O)O)NC(=O)[C@H](C)NC1=O [cL3-Az] ({CH2CO}-YTVTFYPDPFTLQFIACGS[Lys(N3)]G-OH; thioether N-17)
EC50 (C1q; cL3-Az conjugated to biotin-DBCO linker on streptavidin plate, 1 hour 37 °C, single technical replicate, CI 5.2-7.4, R2 0.99, read-out: EC50 of C1q recruitment, Fig. S4): 6.2 µM
EC50 of C1 recruitment compared with the biotinylated variant (C1q; cL3-Az via biotin-DBCO linker on streptavidin plate, 1% human serum): comparable to the biotinylated variant

CC[C@H](C)[C@@H]1NC(=O)[C@H](Cc2ccccc2)NC(=O)[C@H](CCC(N)=O)NC(=O)[C@H](CC(C)C)NC(=O)[C@H]([C@@H](C)O)NC(=O)[C@H](Cc2ccccc2)NC(=O)[C@@H]2CCCN2C(=O)[C@H](CC(=O)O)NC(=O)[C@@H]2CCCN2C(=O)[C@H](Cc2ccc(O)cc2)NC(=O)[C@H](Cc2ccccc2)NC(=O)[C@H]([C@@H](C)O)NC(=O)[C@H](C(C)C)NC(=O)[C@H]([C@@H](C)O)NC(=O)[C@H](Cc2ccc(O)cc2)NC(=O)CSC[C@@H](C(=O)NCC(=O)N[C@@H](CO)C(=O)N[C@@H](CCCCNC(=O)CCCC[C@@H]2SC[C@@H]3NC(=O)N[C@@H]32)C(=O)NCC(=O)O)NC(=O)[C@H](C)NC1=O [cL3-Bt] ({CH2CO}-YTVTFYPDPFTLQFIACGSK(Biotin)G-OH; thioether N-17)
EC50 (C1q; cL3-Bt titrated on streptavidin plate, technical duplicate on one plate (data of Fig. 3a), CI ND, R2 0.99, read-out: EC50 of C1q recruitment, Fig. S2 graph on the right): 6.2 µM
EC50 (C1q; cL3-Bt titrated on streptavidin plate, technical duplicate on one plate, CI 7.4-9.1, R2 0.99, read-out: EC50 of C1q recruitment, Fig. S2 graph in the middle): 8.2 µM
EC50 (C1q; cL3-Bt titrated on streptavidin plate, technical duplicate on one plate, CI ND, R2 0.98, read-out: EC50 of C1q recruitment, Fig. S2 graph on the left): 2.68 µM

CC[C@H](C)[C@@H]1NC(=O)[C@H](Cc2ccccc2)NC(=O)[C@H](CCC(N)=O)NC(=O)[C@H](CC(C)C)NC(=O)[C@H]([C@@H](C)O)NC(=O)[C@H](Cc2ccccc2)NC(=O)[C@@H]2CCCN2C(=O)[C@H](CC(=O)O)NC(=O)[C@@H]2CCCN2C(=O)[C@H](Cc2ccc(O)cc2)NC(=O)[C@H](Cc2ccccc2)NC(=O)[C@H]([C@@H](C)O)NC(=O)[C@H](C(C)C)NC(=O)[C@H]([C@@H](C)O)NC(=O)[C@@H](Cc2ccc(O)cc2)NC(=O)CSC[C@@H](C(=O)NCC(=O)N[C@@H](CO)C(=O)N[C@@H](CCCCNC(=O)CCCC[C@@H]2SC[C@@H]3NC(=O)N[C@@H]32)C(=O)NCC(=O)O)NC(=O)[C@H](C)NC1=O [inv-cL3] ({CH2CO}-[dY]TVTFYPDPFTLQFIACGSK(Biotin)G-OH; thioether N-17; C-terminus assumed)
IC50 ([1]; data of Fig. 6b, four-parameter fit, CI 1.01-2.13, R2 0.94, read-out: IC50, competition with IgG, Fig. S18 fit): 1.5 µM
Inhibition of C5b-9 deposition by pooled IgG (qualitative, rank) ([1]; peptide incubated with 1% human serum, pooled IgG-coated plate, two technical replicates): significantly worse than full-length cL3
Inhibition of C1q binding to pooled IgG [2]: minor inhibition of C1q binding to pooled IgG at high concentrations
